Reference: patent EP0284202A1, “Substituted hydantoin compounds” (THE WELLCOME FOUNDATION LIMITED, priority 1987, dated 1988)

Experiments:
[1] = molecular target: T1, PGD₂ receptor on the human platelet (Homo sapiens, UniProt Q13258); test: Inhibition of ADP-induced aggregation in washed human platelets: antagonism of PGD₂ and compound A, Schild analysis; format: cell-based
T1 construct: endogenous in cells; host or cells: washed human platelets
T1 sequence (Q13258 1-359): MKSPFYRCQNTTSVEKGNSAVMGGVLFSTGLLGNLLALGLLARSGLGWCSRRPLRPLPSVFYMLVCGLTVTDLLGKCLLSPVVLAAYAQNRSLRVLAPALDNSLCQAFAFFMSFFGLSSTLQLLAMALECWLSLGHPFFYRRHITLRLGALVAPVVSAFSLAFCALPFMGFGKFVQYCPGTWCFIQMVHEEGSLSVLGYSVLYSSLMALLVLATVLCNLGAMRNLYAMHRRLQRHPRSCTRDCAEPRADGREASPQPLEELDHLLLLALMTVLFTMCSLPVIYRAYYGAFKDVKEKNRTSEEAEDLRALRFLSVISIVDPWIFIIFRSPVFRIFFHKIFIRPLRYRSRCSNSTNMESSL
Protocol: Washed platelet suspensions were prepared according to a modified version of the method of Vargas et al (Prostaglandins (1982) 23, 929). The suspension was then stored at 4°C for 2 hours and, before use, the following additions were made: Ca⁺⁺ʼ […], indomethacin, 5mcg ml⁻¹; and fibrinogen, 400 mcg ml⁻¹. Aggregation responses were measured using 0.5ml aliquots of the suspension maintained at 37°C and stirred with a metal bar at 900 r.p.m. in 300 BD-S Payton dual channel aggregometers and recorded on Gould BS 272 pen recorders.
Inhibition of platelet aggregation by PGD₂ and compound A were studied as follows. The prostaglandin receptor agonists were incubated in the platelet suspension for 6 minutes prior to adding ADP (5 × 10⁻⁵M). The reproducibility of the ADP-induced aggregation response was checked at intervals throughout the experiment. Antagonists were added 2 minutes before the agonist. Responses were expressed as percent inhibitions of the standard ADP-induced aggregation.
(§1) Measurement of antagonist affinity (pKB) was by Schild analysis.

[2] = tested on: prostaglandin receptors other than DP; test: Actions at other prostaglandin receptors (selectivity); conditions: actions not observed up to this multiple
[3] = tested on: rabbit jugular vein; test: Rabbit jugular vein relaxation: antagonism of PGD₂ and compound A; conditions: potency compared with the antagonism in platelet aggregation
Protocol: Vascular smooth muscle relaxation in response to PGD₂ and compound A was measured as changes in isometric force. Isolated ring segments of rabbit jugular vein suspended in Kreb's buffer, gassed with 95% O₂/5% CO₂ and maintained at 37°C, were treated with: indomethacin, 1 µg ml⁻¹, and the stable thromboxane receptor antagonist BM13177 (Patscheke et al, Biomed. Biochem. Acta (1984) 43, 5321), 30µM. The experiments followed a paired curve design.
Initially, the jugular vein ring segments were subjected to a force of 0.75g, then allowed to stabilize for a period of 60 minutes during which time the preparations were washed three times. Subsequently histamine (10⁻⁶M) was added to produce tone. After establishing a stable contraction, relaxation/concentration effect curves were obtained using prostaglandin receptor agonists. Responses were expressed as per cent relaxations of the histamine-induced force. The preparations were then washed thoroughly and allowed to re-stabilise. The antagonists were then incubated for 60 minutes prior to constriction with histamine (10⁻⁶M), followed by a second determination of the prostaglandin agonist concentration effect curve.
as §1

Kb ([1]; antagonist affinity by Schild analysis, shifts of anti-aggregatory concentration effect curves for PGD₂ and compound A, human washed platelets): 0.55 nM
Schild plot slope ([1]; anti-aggregatory concentration effect curves for PGD₂ and compound A, human washed platelets): unity
behaviour at the PGD₂ receptor on the human platelet ([1]; human washed platelet assay, agonists PGD₂ and compound A): simple competitive antagonist
concentrations without actions at prostaglandin receptors other than DP, relative to that required for DP receptor affinity [2]: > 1000 ×
Structure (SMILES): O=C(O)CCCCCCC1C(=O)N(Cc2ccccc2)C(=O)N1NCC(O)C1CCCCC1 (centres unmarked) [Example 3, 3-Benzyl-5-(6-carboxylhexyl)-1-(2-hydroxy-2-cyclohexylethylamino) hydantoin]
antagonism of the relaxation effects of PGD₂ and compound A [3]: antagonised with similar potencies
